In ChEMBL document CHEMBL4321863, “Exploring Structural Determinants of Inhibitor Affinity and Selectivity in Complexes with Histone Deacetylase 6” (J Med Chem, 2020):
Non-standard residues stand in square brackets, D forms with d. Residues, ends and D or L forms follow the SMILES beside them. *: point of attachment. 3Amb = NCc1cccc(C(=O)O)c1; 4Amb = NCc1ccc(C(=O)O)cc1; Cbz = O=C(OCc1ccccc1)*; NHOH = ON*

Assays:
[1] = target: T1, Protein deacetylase HDAC6 (Homo sapiens, UniProt Q9UBN7); assay: Inhibition of human N-terminal GST-tagged HDAC6 expressed in baculovirus infected insect cells using RHKKAc as substrate
T1 sequence (Q9UBN7 whole entry): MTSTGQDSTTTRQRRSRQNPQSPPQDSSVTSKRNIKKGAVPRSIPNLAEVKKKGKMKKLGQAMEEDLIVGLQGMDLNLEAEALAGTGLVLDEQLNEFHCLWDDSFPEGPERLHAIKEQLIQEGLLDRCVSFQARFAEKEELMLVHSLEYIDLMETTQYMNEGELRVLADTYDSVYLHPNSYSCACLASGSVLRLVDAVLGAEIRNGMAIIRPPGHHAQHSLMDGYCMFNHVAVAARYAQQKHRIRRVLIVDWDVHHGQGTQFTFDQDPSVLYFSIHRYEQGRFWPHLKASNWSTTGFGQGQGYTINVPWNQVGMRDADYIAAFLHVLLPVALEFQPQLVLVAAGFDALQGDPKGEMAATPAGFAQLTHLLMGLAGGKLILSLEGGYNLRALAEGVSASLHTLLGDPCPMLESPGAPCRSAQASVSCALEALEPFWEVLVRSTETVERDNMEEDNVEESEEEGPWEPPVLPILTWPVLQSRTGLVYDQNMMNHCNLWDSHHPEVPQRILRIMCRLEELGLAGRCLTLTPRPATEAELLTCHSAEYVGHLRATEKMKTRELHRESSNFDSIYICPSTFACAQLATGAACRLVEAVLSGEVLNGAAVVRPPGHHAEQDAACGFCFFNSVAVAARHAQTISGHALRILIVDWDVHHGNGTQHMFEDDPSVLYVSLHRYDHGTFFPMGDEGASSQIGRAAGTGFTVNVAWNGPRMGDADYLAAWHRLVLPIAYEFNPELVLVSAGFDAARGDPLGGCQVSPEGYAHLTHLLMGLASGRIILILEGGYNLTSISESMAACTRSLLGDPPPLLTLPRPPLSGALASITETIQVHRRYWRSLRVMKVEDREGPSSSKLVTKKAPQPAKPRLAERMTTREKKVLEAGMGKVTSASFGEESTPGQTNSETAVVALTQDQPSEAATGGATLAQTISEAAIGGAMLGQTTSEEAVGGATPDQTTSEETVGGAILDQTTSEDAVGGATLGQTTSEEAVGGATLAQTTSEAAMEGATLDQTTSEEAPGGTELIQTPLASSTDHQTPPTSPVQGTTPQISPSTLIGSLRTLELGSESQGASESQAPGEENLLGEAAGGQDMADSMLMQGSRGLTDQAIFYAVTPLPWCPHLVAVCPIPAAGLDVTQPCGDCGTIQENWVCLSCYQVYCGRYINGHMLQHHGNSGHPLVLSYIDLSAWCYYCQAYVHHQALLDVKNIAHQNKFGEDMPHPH

[2] = target: T1, Protein deacetylase HDAC6; assay: Inhibition of HDAC6 CD2 domain (unknown origin)
[3] = target: T1, Protein deacetylase HDAC6; assay: Inhibition of recombinant C-terminal FLAG-tagged HDAC6 (unknown origin) using Ac-NH-GGK(Ac)-AMC as substrate measured after 180 mins by fluorescence assay

| SMILES | IC50 [1] | IC50 [2] | further results |
| --- | --- | --- | --- |
| CC1(C)[C@@H]2CC[C@@H](CNCc3ccc(C(=O)NO)cc3)[C@H]1C2 | – | 149 nM | – |
| CC(C)C[C@H](NC(=O)OCc1ccccc1)C(=O)N[C@@H](C)C(=O)NCc1cccc(C(=O)NO)c1 (Cbz-Leu-Ala-[3Amb]-{NHOH}) | – | 8420 nM | – |
| CC(C)C[C@H](NC(=O)OCc1ccccc1)C(=O)N[C@@H](C)C(=O)NCc1ccc(C(=O)NO)cc1 (Cbz-Leu-Ala-[4Amb]-{NHOH}) | 314 nM | – | – |
| CN(C)Cc1ccc(S(=O)(=O)n2ccc(/C=C/C(=O)NO)c2)cc1 [RESMINOSTAT] | – | – | IC50 [3]: 72 nM |

Second part, led by results:

| IC50 [1] | IC50 [2] | SMILES | further results |
| --- | --- | --- | --- |
| 17 nM | – | O=C(NO)c1ccc(CNC(=O)c2cccnc2C(F)(F)F)cc1 | – |
| – | 335 nM | O=C(CNC(=O)CNC(=O)OCc1ccccc1)NCc1ccc(C(=O)NO)cc1 (Cbz-Gly-Gly-[4Amb]-{NHOH}) | – |
